The text below walks through data of ChEMBL document CHEMBL5036321, “Sinularamides A-G, Terpenoid-Derived Spermidine and Spermine Conjugates with Casitas B-Lineage Lymphoma Proto-Oncogene B (Cbl-b) Inhibitory Activities from a Sinularia sp. Soft Coral” (J Nat Prod, 2021).

For the experiment, the target named is E3 ubiquitin-protein ligase CBL-B (Homo sapiens, UniProt Q13191). Kind of experiment: Inhibition of Cbl-b (unknown origin) assessed as inhibition of Cbl-b dependent auto-ubiquitination in presence of ATP measured after 13 hrs by fluorescence microplate reader assay.
Chain of E3 ubiquitin-protein ligase CBL-B (Q13191 whole entry): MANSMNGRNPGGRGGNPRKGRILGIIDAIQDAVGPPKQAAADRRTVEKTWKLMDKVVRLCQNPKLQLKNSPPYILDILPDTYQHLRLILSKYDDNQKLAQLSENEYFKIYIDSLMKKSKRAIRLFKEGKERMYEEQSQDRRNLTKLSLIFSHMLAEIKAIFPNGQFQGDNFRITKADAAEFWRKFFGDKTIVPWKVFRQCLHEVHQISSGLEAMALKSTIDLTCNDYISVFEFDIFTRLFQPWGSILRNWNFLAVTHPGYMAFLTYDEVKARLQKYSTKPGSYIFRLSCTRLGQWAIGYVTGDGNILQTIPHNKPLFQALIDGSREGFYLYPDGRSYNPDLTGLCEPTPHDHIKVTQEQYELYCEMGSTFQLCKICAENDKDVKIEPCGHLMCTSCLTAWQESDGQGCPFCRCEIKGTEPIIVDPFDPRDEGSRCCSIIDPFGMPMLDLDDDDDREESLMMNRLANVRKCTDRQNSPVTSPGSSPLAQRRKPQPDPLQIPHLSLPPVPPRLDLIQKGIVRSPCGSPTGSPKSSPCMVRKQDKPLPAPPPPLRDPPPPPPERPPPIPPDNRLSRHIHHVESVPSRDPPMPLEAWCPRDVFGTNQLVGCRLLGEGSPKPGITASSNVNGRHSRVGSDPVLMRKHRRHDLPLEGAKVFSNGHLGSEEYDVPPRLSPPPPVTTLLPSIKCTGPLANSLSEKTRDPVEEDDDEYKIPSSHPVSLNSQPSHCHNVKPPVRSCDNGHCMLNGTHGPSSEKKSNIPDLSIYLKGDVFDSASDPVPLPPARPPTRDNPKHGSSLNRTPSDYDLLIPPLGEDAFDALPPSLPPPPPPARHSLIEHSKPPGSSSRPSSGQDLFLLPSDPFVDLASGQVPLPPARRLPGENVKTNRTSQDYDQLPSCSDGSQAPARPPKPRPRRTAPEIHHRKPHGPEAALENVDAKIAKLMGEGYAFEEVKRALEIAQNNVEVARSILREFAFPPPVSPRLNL

As for `CC(C)=CCC/C(C)=C/CC/C(C)=C/CC/C(C)=C/C(=O)NCCC[N+](C)(C)CCCC[N+](C)(C)CCCNC(=O)/C=C(\C)CC/C=C(\C)CC/C=C(\C)CCC=C(C)C`, the IC50 – broadly, the midpoint of a concentration-inhibition curve – came out at 6.5 µM.
